Assay results: publication PMC4783973, “Synthetic Human TLR9-LRR11 Peptide Attenuates TLR9 Signaling by Binding to and thus Decreasing Internalization of CpG Oligodeoxynucleotides” (International Journal of Molecular Sciences, 2016)
Like-named read-outs stand apart in the source and are kept apart here.

Tests used:
NF-κB p65 subunit = experiment: NF-κB activity assay, p65 subunit in nuclear extract of RAW264.7 cells (Trans^AM ELISA); assay type: cell-based; settings: CpG ODN 1.5 μM; 4 h; n = 3
Method: Figure 3 Synthetic peptide (SP) inhibited NF-κB activation induced by CpG oligodeoxynucleotides (CpG ODN) in RAW264.7 cells. RAW264.7 cells (5.0 × 10^6 cells) grown in six-well plates were treated with 1.5 μM of ODN2006 (A) or ODN107 (B) preincubated with SP (0, 0.5, 1.5, or 4.5 μM) or unrelated peptide (URP) (4.5 μM) at 37 °C for 15 min. After incubation for 4 h, the cells were collected to extract nuclear proteins. The p65 subunit was detected using enzyme-linked immunosorbent assay (ELISA) kits. Data from one of three independent experiments are shown (n = 3). “*”, p < 0.05 vs. ODN2006 or ODN107; “**”, p < 0.01 vs. ODN2006 or ODN107; “#”, p > 0.05 vs. ODN2006 or ODN107.
(§1) The RAW264.7 cell line was purchased from American Type Culture Collection (ATCC, Manassas, VA, USA). Cells were cultured in DMEM (high glucose) medium containing 10% FCS in a 37 °C humidified atmosphere with 5% CO2. Cells diluted with 0.4% trypan blue in phosphate-buffered saline (PBS, 0.1 mM, pH 7.2–7.4) were counted using a hemocytometer.
RAW264.7 cells (5.0 × 10^6 cells) were placed in six-well plates for 4 h, and the supernatants were then replaced with fresh medium containing 1.5 μM of ODN2006 or ODN107 that had been preincubated with SP (0, 0.5, 1.5, or 4.5 μM) or URP (4.5 μM) at 37 °C for 15 min. After incubation for 4 h, the cells were collected to extract nuclear proteins. Equal amounts of each sample were used to detect the DNA binding activity of the NF-κB p65 subunit using Trans^AM NF-κB ELISA kits (Active Motif), according to the manufacturer’s instructions.

RAW264.7 cells = experiment: TNF-α and IL-6 release from RAW264.7 cells, both cytokines stated together (ELISA); assay type: cell-based, mouse; settings: CpG ODN 1.5 μM; 6 h; n = 4 (Figure 1)
Method: Figure 1 Synthetic peptide (SP) decreased TNF-α and IL-6 release from RAW264.7 cells treated with CpG oligodeoxynucleotides (CpG ODN). RAW264.7 cells (4.0 × 10^5 cells) grown in 48-well plates were treated with 1.5 μM of ODN2006 or ODN107 preincubated with SP (0, 0.5, 1.5, or 4.5 μM) or unrelated peptide (URP) (4.5 μM) at 37 °C for 15 min. After incubation for 6 h, the supernatants were collected to detect TNF-α (A) and IL-6 (B) using enzyme-linked immunosorbent assay (ELISA) kits. Data from one of three independent experiments are shown (n = 4). “*”, p < 0.05 vs. ODN2006 or ODN107; “**”, p < 0.01 vs. ODN2006 or ODN107; “#”, p > 0.05 vs. ODN2006 or ODN107.
(§2) Experiments were performed as described in Figure 1. The concentrations of ODN2006, LPS, PAM3 and SP were 1.5 μM, 20 ng/mL, 5 μg/mL and 1.5 μM, respectively. Data from one of three independent experiments are shown (n = 3).
as §1
(§3) RAW264.7 cells (4.0 × 10^5 cells) were incubated in 48-well plates for 4 h, and supernatants were replaced with 0.4 mL of serum-free DMEM medium containing 1.5 μM of ODN2006 or ODN107, which had been preincubated with 0, 0.5, 1.5 or 4.5 μM of SP or 4.5 μM of URP at 37 °C for 15 min. After incubation for 6 h, the supernatants were collected to detect TNF-α and IL-6 concentrations using corresponding ELISA kits (eBioscience).

[1] = system: CpG ODN-induced cytokine release; settings: ref [19],[20]; cited from earlier work
Excerpt: CpG ODN-induced diseases, such as sepsis and some autoimmune disorders, are triggered by uncontrolled release of proinflammatory cytokines, e.g., TNF-α and IL-6 [18]. […] Herein, we firstly evaluated the inhibitory effect of SP on CpG ODN-induced cytokine release in the cellular tests. Tw ... || NF-κB is one of the most important inflammatory switches that comprise a series of transcription factors that regulate the expressions of various proinflammatory cytokines (IL-1, IL-6, IL-8 and TNF-α). NF-κB activation is depended on the degradation and phosphorylation of IκBα [12].

TLR signaling = settings: inhibitors of clathrin-mediated phagocytosis; ref [24]; cited from earlier work
Excerpt: (§4) CpG ODN must be internalized within cells before activating TLR9 signaling and inducing cytokines release. Thus, interfering with CpG ODN internalization probably leads to reduced activation of TLR9 signaling.

[2] = cited from earlier work
Excerpt: as §4

PAM3/TLR1/TLR2 = experiment: PAM3CSK4 (TLR1/2)-induced TNF-α and IL-6 release from RAW264.7 cells (ELISA); assay type: cell-based, mouse; settings: PAM3 5 μg/mL; n = 3 (Figure 2)
Method: as §2, §1, §3

LPS/TLR4 = experiment: LPS (TLR4)-induced TNF-α and IL-6 release from RAW264.7 cells (ELISA); assay type: cell-based, mouse; settings: LPS 20 ng/mL; n = 3 (Figure 2)
Method: as §2, §1, §3

For “5′-TGGCGCGGGCGG-3′ (DNA, all phosphorothioate, methylation of C not given here) [ODN107, a stimulatory CpG ODN developed in our laboratory]”, which “effect on activation of p65 (CpG ODN stimulation)” value (NF-κB p65 subunit) is on record?
Its value is “significantly increased”.

And the “effect on TNF-α and IL-6 release (CpG ODN stimulation)” value (RAW264.7 cells)?
Its value is “significantly increased”.

Which results are given for `CCN(CC)CCCC(C)Nc1ccnc2cc(Cl)ccc12` (stereo not shown) [chloroquine]?
effect on CpG ODN-induced cytokine release [1]: inhibitors of CpG ODN-induced cytokine release; effect on proinflammatory cytokines [1]: inhibited proinflammatory cytokines

For `O=C(N/N=C/c1ccc(O)c(O)c1)c1cc2ccccc2cc1O` [dynasore], which “effect on TLR signaling” value (TLR signaling) is on record?
The value was “significant inhibitory effects on TLR signaling”.

What about the cell toxicity ([2]; ref [24]) of the same compound?
Its cell toxicity is “distinct cell toxicity”.

With `CN(C)c1cccc2c(S(=O)(=O)NCCCCCN)cccc12` [monodansylcadaverine] as the compound, how does the “effect on TLR signaling” value (TLR signaling) read?
Its value is “significant inhibitory effects on TLR signaling”.

What about the cell toxicity [2] of the same compound?
Its cell toxicity is “distinct cell toxicity”.

With PAM3CSK4 as the compound, how does the “effect on TNF-α and IL-6 release (stimulation)” value (PAM3/TLR1/TLR2) read?
Its value is “significantly increased”.

With lipopolysaccharide [LPS] as the compound, how does the “effect on TNF-α and IL-6 release (stimulation)” value (LPS/TLR4) read?
The value was “significantly increased”.
